Experimental data as given in PubChem BioAssay (NCI).
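Grown in 96-well plates, cells were treated for 48 hours with each compound at five concentrations. Insufficient inhibition: endpoint recorded as highest concentration tested. TGI denotes the concentration required for complete inhibition of growth.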

Assays:
Assay in all cases: growth of human tumour cells (NCI), 48 h
SNB-19 CNS = system: SNB-19 CNS
SK-MEL-5 melanoma = system: SK-MEL-5 melanoma
A549 NSCLC = system: A549 NSCLC
CCRF-CEM leukemia = system: CCRF-CEM leukemia
RXF 393 renal = system: RXF 393 renal
HT29 colon = system: HT29 colon
SK-MEL-2 melanoma = system: SK-MEL-2 melanoma
EKVX NSCLC = system: EKVX NSCLC
SW-620 colon = system: SW-620 colon
K-562 leukemia = system: K-562 leukemia
SF-295 CNS = system: SF-295 CNS
OVCAR-3 ovarian = system: OVCAR-3 ovarian
ACHN renal = system: ACHN renal
A498 renal = system: A498 renal
OVCAR-5 ovarian = system: OVCAR-5 ovarian
COLO 205 colon = system: COLO 205 colon
HOP-92 NSCLC = system: HOP-92 NSCLC
MCF7 breast = system: MCF7 breast
MDA-MB-435 = system: MDA-MB-435

Row | SMILES | TGI (SNB-19 CNS) | TGI (SK-MEL-5 melanoma) | TGI (A549 NSCLC) | TGI (CCRF-CEM leukemia) | TGI (RXF 393 renal) | TGI (HT29 colon) | TGI (SK-MEL-2 melanoma) | TGI (EKVX NSCLC) | TGI (SW-620 colon) | TGI (K-562 leukemia) | TGI (SF-295 CNS) | TGI (OVCAR-3 ovarian) | TGI (ACHN renal) | TGI (A498 renal) | TGI (OVCAR-5 ovarian) | TGI (COLO 205 colon) | TGI (HOP-92 NSCLC) | TGI (MCF7 breast) | TGI (MDA-MB-435)
1 | COc1cc2c(oc(=O)c3c4oc([Si](C)(C)C)cc4cc(OC)c23)c2cccc(O)c12 | > 100 µM | > 100 µM | > 100 µM | > 100 µM | > 100 µM | > 100 µM | > 100 µM | > 100 µM | > 100 µM | > 100 µM | > 100 µM | > 100 µM | > 100 µM | > 100 µM | > 100 µM | > 100 µM | > 100 µM |  | 
2 | COc1ccc(C2Oc3cc(OC)c(O)cc3[C@@H]2C)cc1 (some centres not stated) | 19.5 µM | > 100 µM | > 100 µM | 44.2 µM | > 100 µM | > 100 µM | > 100 µM | > 100 µM | 40.2 µM | > 100 µM | > 100 µM | > 100 µM | 33.2 µM | > 100 µM | > 100 µM | > 100 µM | 72.1 µM |  | 
3 | N#Cc1ccc(/C=C2\Cc3ccccc3C2=O)cc1 | > 100 µM | > 100 µM | > 100 µM | > 100 µM | > 100 µM | > 100 µM |  | > 100 µM | > 100 µM | > 100 µM | > 100 µM | > 100 µM | > 100 µM |  |  | > 100 µM |  | > 100 µM | > 100 µM
4 | COC[C@@H](N=Cc1ccc(OC)cc1)C(C)C |  | > 100 µM | > 100 µM | > 100 µM | > 100 µM | > 100 µM | > 100 µM | > 100 µM | > 100 µM | > 100 µM | > 100 µM |  | > 100 µM |  | > 100 µM | > 100 µM |  | > 100 µM | > 100 µM
5 | C[N+](C)([O-])Cc1cccc(NC(=O)c2ccc(C(=O)Nc3cccc(C[N+](C)(C)[O-])c3)cc2)c1 | > 100 µM | > 100 µM | > 100 µM | > 100 µM | > 100 µM | > 100 µM | > 100 µM | > 100 µM | > 100 µM | > 100 µM | > 100 µM | > 100 µM | > 100 µM |  | > 100 µM | > 100 µM | > 100 µM | > 100 µM | 
6 | CC(C)(C)OC(=O)NCCNC(=O)OCc1ccccc1 | > 100 µM | > 100 µM | > 100 µM |  | > 100 µM | > 100 µM | > 100 µM | > 100 µM | > 100 µM | > 100 µM | > 100 µM | > 100 µM | > 100 µM |  | > 100 µM | > 100 µM | > 100 µM | > 100 µM | > 100 µM
7 | Cc1ccc(-n2cc(-c3ccc(Cl)cc3)c3c(NNC(=S)NCc4ccccc4)ncnc32)cc1 | > 100 µM | 19.5 µM | 41.1 µM | > 100 µM | 56.4 µM | 50.7 µM | 20.1 µM | 73.5 µM | > 100 µM | > 100 µM | 55.4 µM | 37.4 µM | > 100 µM | 82.1 µM | 48.6 µM | 27.3 µM | 66 µM |  | 76.1 µM
8 | CCN(CC)CC(C(=O)Nc1c(C)cccc1C)/C(C)=N/NC(N)=S (configuration not stated) |  | > 100 µM | > 100 µM | > 100 µM | > 100 µM | > 100 µM | > 100 µM | > 100 µM | > 100 µM | > 100 µM | > 100 µM | > 100 µM | > 100 µM | > 100 µM | > 100 µM | > 100 µM | > 100 µM |  | 
9 | CC1=C2CC3=C(C)C(=O)O[C@H]3C[C@@H](C)[C@@H]2CC1 | > 100 µM | > 100 µM |  | > 100 µM |  | > 100 µM | > 100 µM | > 100 µM | > 100 µM | > 100 µM | > 100 µM | > 100 µM | > 100 µM | > 100 µM | > 100 µM | > 100 µM | > 100 µM |  | > 100 µM
10 | CC1CCCC2(O1)OC1CC(=O)OC1C1=C2C(=O)c2ccccc2C1=O (configuration not stated) | 30.5 µM | 4.14 µM | 35.5 µM |  | 4.14 µM | 11 µM | 6.11 µM | 14.2 µM | 6.42 µM |  | 32 µM | 10.5 µM | 15 µM | 33.8 µM | 35 µM | 5.19 µM |  |  | 
11 | CC(C)(C)C(=O)Cc1cc2c(cc1C(=O)O)S(=O)(=O)NC(C(C)(C)C)=C2 | > 100 µM |  | > 100 µM | > 100 µM |  | > 100 µM | > 100 µM | > 100 µM | > 100 µM | > 100 µM | > 100 µM | > 100 µM | > 100 µM | > 100 µM | > 100 µM | > 100 µM | > 100 µM |  | 
12 | COC(=O)c1cc(CNCCc2c[nH]c3ccccc23)on1 | > 100 µM | > 100 µM | > 100 µM | > 100 µM | > 100 µM | > 100 µM | > 100 µM | > 100 µM | > 100 µM | > 100 µM | > 100 µM | > 100 µM | > 100 µM | > 100 µM | > 100 µM | > 100 µM | > 100 µM | > 100 µM | 
13 | CCC1(CC)C(=O)N(C(=O)c2ccc(Cl)cc2)N(C(=O)c2ccccc2Cl)C1=O | > 100 µM | > 100 µM | > 100 µM | > 100 µM | > 100 µM | 22.6 µM | > 100 µM | 24.9 µM | 89.8 µM | > 100 µM | > 100 µM | > 100 µM | > 100 µM |  | > 100 µM | > 100 µM |  | > 100 µM | 43.9 µM
